In US5563156A, “Thrombin inhibitors” (Merrell Pharmaceuticals Inc., priority 1991, dated 1996):

What was measured:
Type in all cases: biochemical
human plasma [1] = assay: Anticoagulant effect in human plasma, thrombin time (TT)
Description: (§1) Anticoagulant data may be represented as follows:

HUMAN LUNG TRYPTASE = assay: In vitro inhibition of human lung tryptase, rate constants by progress curve analysis; conditions: nonlinear regression (ENZFITTER)
Experimental: Using standard in vitro methodology for determining inhibitory activity of tryptase (Journal of Biological Chemistry, Vol. 261, Jun. 5, pp. 7322-7379, 1986), the following results have been obtained:
^a Rate constants were determined by progress curve analysis using a
nonlinear regression program (ENZFITTER)

human plasma [2] = assay: Anticoagulant effect in human plasma, activated partial thromboplastin time (aPTT)
Description: as §1

Molecule	ID2 TT (amount required for doubling the clotting time) (human plasma [1])	Ki (HUMAN LUNG TRYPTASE)	koff (HUMAN LUNG TRYPTASE)	kon (HUMAN LUNG TRYPTASE)	ID2 a PTT (amount required for doubling the clotting time) (human plasma [2])
L-Prolinamide, N-methyl-D-phenylalanyl-N-[1-[3-[(aminoiminomethyl) amino]propyl]-3,3,3-trifluoro-2-oxopropyl]-, dihydrochloride, hydrate [D-CH3 Phe--Pro--Arg--CF3]	108 µM	0.08 µM	1.5e-05 s⁻¹	200 ± 10 M⁻¹ s⁻¹	218 µM
Cl.Cl.N=C(N)NCCCC(NC(=O)[C@@H]1CCCN1C(=O)[C@H]1Cc2ccccc2CN1)C(=O)C(F)(F)C(F)(F)F.O (stereo partly drawn) [D-3-TIC--Pro--Arg--CF2 CF3, L-Prolinamide, N-[2-[3-[(aminoiminomethyl)amino]propyl]-3,3,4,4,4-pentafluoro-2-oxobutyl]-1-D-[(1,2,3,4-tetrahydro-3-isoquinolinyl)carbonyl]-, dihydrochloride, hydrate]	–	0.075 µM	0.00034 s⁻¹	4700 ± 200 M⁻¹ s⁻¹	–
CC(=O)O.F.N=C(N)NCCCC(NC(=O)[C@@H]1CCCN1C(=O)[C@H](N)Cc1ccccc1)C(=O)C(F)(F)F.O (stereo partly drawn) [D-Phe--Pro--Arg--CF3, L-Prolinamide, N-D-phenylalanyl-N-[1-[3-[(amino]iminomethyl)amino]propyl]-3,3,3-trifluoro-2-oxopropyl]-, hydrofluoride, acetate, hydrate]	–	0.5 µM	–	–	–
CC(=O)O.F.N=C(N)NCCCC(NC(=O)[C@@H]1CCCN1C(=O)[C@H](N)Cc1ccccc1)C(=O)C(F)(F)F.O (stereo partly drawn) [D-Phe--Pro--Arg--CF3]	43 µM	–	0.00015 s⁻¹	290 ± 20 M⁻¹ s⁻¹	148 µM
